Measurements as given in patent publication US20210115509A1, “BIOMARKER FOR IDENTIFYING SPECIFIC EXPOSURE TO KETONES AND METHOD OF IDENTIFICATION USING THE SAME” (KOREA INSTITUTE OF SCIENCE AND TECHNOLOGY, priority 2019, published 2021).

How the values were obtained:
[1] = tested on: BEAS-2B human bronchial epithelial cell line; assay: MTT assay, cytotoxicity of ketone compounds in BEAS-2B cell line; format: cell-based; conditions: human, 48 h
Procedure: BEAS-2B (Korean Cell Line Bank), a human bronchial epithelial cell line, was cultured using RPMI 1640 medium (Gibco, USA) supplemented with 10% FBS until the cells grew to about a confluence of 70 to 80% in a 100 mm dish.
Among ketones belonging to mVOCs (microbial volatile organic compounds) exposed to the environment, acetone, 2-butanone, 2-pentanone, 2-hexanone and 2-heptanone were selected, and the chemicals were dissolved in filtered distilled water (DW). A vehicle concentration was set to 0.1% or less in all experiments.
MTT assay using a BEAS-2B cell line was performed in accordance with the method of Mossman et al. (J. Immunol. Methods, 65, 55-63, 1983).
Specifically, the cells were seeded at a density of 3.5×10^4 cells/well in a 24-well plate and treated with the five ketone compounds dissolved in filtered distilled water, prepared in Example 1-2. After 48 hours, the result was mixed with 5 mg/ml of MTT (3-4,5-dimethylthiazol-2,5-diphenyltetrazolium bromide), added to a tube and incubated at 37° C. for 3 hours. Then, the medium was removed, the formed formazan crystal was dissolved in 500 μl of DMSO, and then 100 μl of the solution was transferred to a 96-well plate to measure an OD (optical density) value at 540 nm.

[2] = tested on: BEAS-2B human bronchial epithelial cell line; assay: Gene expression change by high-throughput RNA sequencing (NextSeq 500) in ketone-exposed BEAS-2B cells; format: cell-based
Procedure: RNA was extracted from cell samples of ketone-exposed and non-ketone-exposed groups using a TRIzol reagent (Life Technologies, USA) in accordance with the manufacturer's directions to isolate total RNA and the total RNA was purified using a RNeasy mini kit (Qiagen, USA). The concentration of each total RNA sample was determined by a ND-2000 spectrophotometer (Thermo Inc., DE, USA) as a spectrophotometer and Agilent 2100 Bioanalyzer (Agilent Technologies, USA).
The establishment of libraries from the total RNA obtained in Example 2-1 in the experimental group and the normal control group exposed to the ketones was carried out using a QuantSeq 3′ mRNA-Seq Library Prep Kit (Lexogen, Inc., Austria) in accordance with the manufacturer's directions. 500 ng of the total RNA was hybridized with an oligo-dT primer including an Illumina-compatible sequence at the 5′ end of RNA, followed by reverse transcription. After degradation of the RNA template, a second strand was synthesized using a random primer including an Illumina-compatible linker sequence at the 5′ end thereof. Double-stranded libraries were purified using magnetic beads to remove all reaction components. The library was amplified in order to add the entire adapter sequence required for cluster production, and the completed cDNA library was purified from the PCR components.
Sequencing was performed by high-throughput sequencing as single-end 75 sequencing using a NextSeq 500 (IIlumina, Inc., USA). Read count (RC) data was processed based on the quantile normalization method using EdgeR in R (R development Core Team, 2016) using Bioconductor (Gentleman et al., 2004). Gene classification was based on searches performed on DAVID (http://david.abcc.ncifcrf.gov/) and the Medline database (http://www.ncbi.nlm.nih.gov/).
The extracted data were analyzed through normalization using Agilent GeneSpring GX 12.6.1 (Agilent technologies, CA, USA) to analyze the expression pattern of each gene.

[3] = IC5 conc.: Acetone 5.38, 2-Butanone 22.27, 2-Pentanone 5.24, 2-Hexanone 14.82, 2-Heptanone 5.05 mM
[4] = IC20 conc.: Acetone 71.90, 2-Butanone 106.21, 2-Pentanone 39.38, 2-Hexanone 52.51, 2-Heptanone 20.22 mM

CCCCC(C)=O [2-Hexanone, 2-hexanone]
concentration (105) providing a survival rate (viability) of 95% [1]: 14820 µM | concentration (1020) providing a survival rate (viability) of 80% [1]: 52510 µM | Fold change ADRA2A (NM_000681) [2, 3]: 0.410 | Fold change ATRNL1 (NR_074088) [2, 3]: 2.058 | Fold change C12orf79 (NR_046159) [2, 3]: 0.218 | Fold change C14orf80 (NR_046159) [2, 3]: 0.358 | Fold change CALML3 (NM_001286399) [2, 3]: 0.358 | Fold change CCDC184 (NM_001013635) [2, 3]: 3.872 | Fold change CD37 (NM_001040031) [2, 3]: 4.214 | Fold change CDHR1 (NM_001171971) [2, 3]: 0.228 | Fold change CHL1 (NM_001253387) [2, 3]: 0.296 | Fold change COL4A3 (NM_000091) [2, 3]: 4.765 | Fold change CRLF2 (NM_022148) [2, 3]: 0.362 | Fold change CSF3R (NM_172313) [2, 3]: 0.358 | Fold change DNMBP-AS1 (NR_024130) [2, 3]: 14.919 | Fold change EGR1 (NM_001964) [2, 3]: 0.448 | Fold change GNA14 (NM_004297) [2, 3]: 8.515 | Fold change LOC728752 (NR_036504) [2, 3]: 6.212 | Fold change PAX8 (NM_003466) [2, 3]: 5.964 | Fold change PRRT3-AS1 (NR_046734) [2, 3]: 2.811 | Fold change RBP3 (NM_002900) [2, 3]: 0.358 | Fold change SEPT14 (NM_207366) [2, 3]: 0.220 | Fold change SERPINA12 (NM_001304461) [2, 3]: 0.358 | Fold change SLC13A4 (NM_012450) [2, 3]: 4.947 | Fold change SPOCK2 (NM_001244950) [2, 3]: 4.851 | Fold change TSPAN1 (NM_005727) [2, 3]: 2.828 | Fold change USP12-AB1 (NR_046647) [2, 3]: 3.862 | Fold change VIPR†-AS1 (NR_046654) [2, 3]: 0.358 | Fold change XIRP1 (NM_001198621) [2, 3]: 0.358 | Fold change ZFP69B (NM_023070) [2, 3]: 4.095 | Fold change ZNF432 (NM_014650) [2, 3]: 5.206 | Fold change ZNF487 (NR_026693) [2, 3]: 0.358 | Fold change ADRA2A (NM_000681) [2, 4]: 0.179 | Fold change ATRNL1 (NR_074088) [2, 4]: 2.281 | Fold change C12orf79 (NR_046159) [2, 4]: 0.213 | Fold change C14orf80 (NR_046159) [2, 4]: 0.354 | Fold change CALML3 (NM_001286399) [2, 4]: 0.354 | Fold change CCDC184 (NM_001013635) [2, 4]: 6.982 | Fold change CD37 (NM_001040031) [2, 4]: 2.819 | Fold change CDHR1 (NM_001171971) [2, 4]: 0.432 | Fold change CHL1 (NM_001253387) [2, 4]: 0.364 | Fold change COL4A3 (NM_000091) [2, 4]: 4.424 | Fold change CRLF2 (NM_022148) [2, 4]: 0.355 | Fold change CSF3R (NM_172313) [2, 4]: 0.354 | Fold change DNMBP-AS1 (NR_024130) [2, 4]: 5.009 | Fold change EGR1 (NM_001964) [2, 4]: 0.328 | Fold change GNA14 (NM_004297) [2, 4]: 4.986 | Fold change LOC728752 (NR_036504) [2, 4]: 6.982 | Fold change PAX8 (NM_003466) [2, 4]: 2.992 | Fold change PRRT3-AS1 (NR_046734) [2, 4]: 3.123 | Fold change RBP3 (NM_002900) [2, 4]: 0.354 | Fold change SEPT14 (NM_207366) [2, 4]: 0.214 | Fold change SERPINA12 (NM_001304461) [2, 4]: 0.354 | Fold change SLC13A4 (NM_012450) [2, 4]: 7.012 | Fold change SPOCK2 (NM_001244950) [2, 4]: 3.833 | Fold change TSPAN1 (NM_005727) [2, 4]: 4.272 | Fold change USP12-AB1 (NR_046647) [2, 4]: 3.988 | Fold change VIPR†-AS1 (NR_046654) [2, 4]: 0.354 | Fold change XIRP1 (NM_001198621) [2, 4]: 0.354 | Fold change ZFP69B (NM_023070) [2, 4]: 2.573 | Fold change ZNF432 (NM_014650) [2, 4]: 4.577 | Fold change ZNF487 (NR_026693) [2, 4]: 0.354
